From the NIST ThermoML archive (doi:10.1016/j.jct.2011.07.005)

Settings: Liquid; for mass density: Vibrating tube method

CCCCC(CC)COC(=O)CCCCCCCCC(=O)OCC(CC)CCCC (centres undefined) [bis(2-ethylhexyl) decanedioate]
Settings | mass density [kg/m3] | viscosity [mPa·s]
278.15 K, 101.33 kPa | 924.7 | –
278.15 K, Concentric cylinders viscometry | – | 42.04
283.15 K, 101.33 kPa | 921.2 | –
283.15 K, Concentric cylinders viscometry | – | 32.77
288.15 K, 101.33 kPa | 917.6 | –
288.15 K, Concentric cylinders viscometry | – | 26.01
293.15 K, 101.33 kPa | 913.9 | –
293.15 K, Concentric cylinders viscometry | – | 21
298.15 K, 100 kPa | 909.8 | –
298.15 K, 101.33 kPa | 910.3 | –
298.15 K, 1000 kPa | 910.4 | –
298.15 K, 5000 kPa | 912.8 | –
298.15 K, 10000 kPa | 915.6 | –
298.15 K, 15000 kPa | 918.4 | –
298.15 K, 20000 kPa | 921.2 | –
298.15 K, 30000 kPa | 926.4 | –
298.15 K, 40000 kPa | 931.4 | –
298.15 K, 45000 kPa | 933.8 | –
298.15 K, 50000 kPa | 936.1 | –
298.15 K, 60000 kPa | 940.6 | –
298.15 K, Concentric cylinders viscometry | – | 17.21
303.15 K, 101.33 kPa | 906.7 | –
303.15 K, Concentric cylinders viscometry | – | 14.32
308.15 K, 101.33 kPa | 903.1 | –
308.15 K, Concentric cylinders viscometry | – | 12.07
313.15 K, 101.33 kPa | 899.5 | –
313.15 K, Concentric cylinders viscometry | – | 10.28
318.15 K, 101.33 kPa | 895.9 | –
318.15 K, Concentric cylinders viscometry | – | 8.845
323.15 K, 100 kPa | 892 | –
323.15 K, 101.33 kPa | 892.3 | –
323.15 K, 1000 kPa | 892.6 | –
323.15 K, 5000 kPa | 895.3 | –
323.15 K, 10000 kPa | 898.5 | –
323.15 K, 15000 kPa | 901.7 | –
323.15 K, 20000 kPa | 904.7 | –
323.15 K, 30000 kPa | 910.4 | –
323.15 K, 40000 kPa | 915.8 | –
323.15 K, 45000 kPa | 918.4 | –
323.15 K, 50000 kPa | 920.9 | –
323.15 K, 60000 kPa | 925.7 | –
323.15 K, Concentric cylinders viscometry | – | 7.679
328.15 K, 101.33 kPa | 888.7 | –
328.15 K, Concentric cylinders viscometry | – | 6.727
333.15 K, 101.33 kPa | 885.1 | –
333.15 K, Concentric cylinders viscometry | – | 5.939
338.15 K, 101.33 kPa | 881.4 | –
338.15 K, Concentric cylinders viscometry | – | 5.275
343.15 K, 101.33 kPa | 877.9 | –
343.15 K, Concentric cylinders viscometry | – | 4.719
348.15 K, 100 kPa | 874 | –
348.15 K, 101.33 kPa | 874.3 | –
348.15 K, 1000 kPa | 874.7 | –
348.15 K, 5000 kPa | 877.7 | –
348.15 K, 10000 kPa | 881.3 | –
348.15 K, 15000 kPa | 884.8 | –
348.15 K, 20000 kPa | 888.2 | –
348.15 K, 30000 kPa | 894.5 | –
348.15 K, 40000 kPa | 900.5 | –
348.15 K, 45000 kPa | 903.3 | –
348.15 K, 50000 kPa | 906 | –
348.15 K, 60000 kPa | 911.3 | –
348.15 K, Concentric cylinders viscometry | – | 4.248
353.15 K, 101.33 kPa | 870.7 | –
353.15 K, Concentric cylinders viscometry | – | 3.843
358.15 K, 101.33 kPa | 867.1 | –
358.15 K, Concentric cylinders viscometry | – | 3.494
363.15 K, 101.33 kPa | 863.7 | –
363.15 K, Concentric cylinders viscometry | – | 3.169
368.15 K, 101.33 kPa | 859.9 | –
368.15 K, Concentric cylinders viscometry | – | 2.902
373.15 K, 101.33 kPa | 856.4 | –
373.15 K, 1000 kPa | 856.9 | –
373.15 K, 5000 kPa | 860.3 | –
373.15 K, 10000 kPa | 864.3 | –
373.15 K, 15000 kPa | 868.1 | –
373.15 K, 20000 kPa | 871.8 | –
373.15 K, 30000 kPa | 878.8 | –
373.15 K, 40000 kPa | 885.2 | –
373.15 K, 45000 kPa | 888.3 | –
373.15 K, 50000 kPa | 891.3 | –
373.15 K, 60000 kPa | 897 | –
373.15 K, Concentric cylinders viscometry | – | 2.661
398.15 K, 1000 kPa | 839 | –
398.15 K, 5000 kPa | 842.8 | –
398.15 K, 10000 kPa | 847.3 | –
398.15 K, 15000 kPa | 851.6 | –
398.15 K, 20000 kPa | 855.8 | –
398.15 K, 30000 kPa | 863.4 | –
398.15 K, 40000 kPa | 870.4 | –
398.15 K, 45000 kPa | 873.7 | –
398.15 K, 50000 kPa | 877 | –
398.15 K, 60000 kPa | 883.1 | –

viscosity [mPa·s], Falling or rolling sphere viscometry
Settings | 298.15 K | 313.15 K | 323.15 K | 348.15 K | 373.15 K | 398.15 K
100 kPa | 17 | 10.2 | 7.53 | 4.17 | 2.67 | 1.84
1000 kPa | 17.3 | 10.3 | 7.63 | 4.21 | 2.7 | 1.86
5000 kPa | 18.4 | 10.9 | 8.09 | 4.42 | 2.84 | 1.96
10000 kPa | 19.9 | 11.7 | 8.68 | 4.69 | 3.03 | 2.07
15000 kPa | 21.5 | 12.5 | 9.29 | 4.97 | 3.22 | 2.2
20000 kPa | 23.2 | 13.4 | 9.94 | 5.28 | 3.42 | 2.32
30000 kPa | 26.8 | 15.2 | 11.3 | 5.94 | 3.83 | 2.59
40000 kPa | 30.8 | 17.3 | 12.8 | 6.68 | 4.27 | 2.86
45000 kPa | 33 | 18.4 | 13.6 | 7.07 | 4.49 | 3.01
50000 kPa | 35.2 | 19.6 | 14.4 | 7.48 | 4.72 | 3.16
60000 kPa | 40 | 22 | 16 | 8.37 | 5.19 | 3.46
